± gives the expanded uncertainty stated by the source.

The nature of series [1]: xn = mol fraction of the nth substance listed. The conditions noted are these: 101.3 kPa, Liquid, x1 = 1; for viscosity: Capillary tube (Ostwald / Ubbelohde) method; for mass density: Pycnometric method.
For series [2] the following is noted: 101.3 kPa, Liquid; for viscosity: Capillary tube (Ostwald / Ubbelohde) method; for mass density: Pycnometric method.

One may read the viscosity as the resistance of a fluid to flow. One may read the mass density as the mass of a sample divided by its volume. For the compound `CN(C)C=O` [dimethylformamide] + OCc1ccccc1, the viscosity in series [1] (298.15 K) came to 0.803 ± 0.006 mPa·s; in series [1] (303.15 K), 0.756 ± 0.006 mPa·s; in series [1] (308.15 K), 0.71 ± 0.005 mPa·s; in series [1] (313.15 K), 0.673 ± 0.005 mPa·s. Also, the mass density was determined as 944.5 ± 0.3 kg/m3 in series [1] (298.15 K), 939.8 ± 0.3 kg/m3 in series [1] (303.15 K), 935.1 ± 0.3 kg/m3 in series [1] (308.15 K) and 930.2 ± 0.4 kg/m3 in series [1] (313.15 K).

In the case of `OCc1ccccc1` [benzenemethanol], the viscosity came to 5.16 ± 0.031 mPa·s in series [2] (298.15 K), 4.67 ± 0.028 mPa·s in series [2] (303.15 K), 4.004 ± 0.024 mPa·s in series [2] (308.15 K) and 3.52 ± 0.021 mPa·s in series [2] (313.15 K). The mass density in series [2] (298.15 K) is recorded as 1041.3 ± 0.4 kg/m3; in series [2] (303.15 K), 1037.5 ± 0.4 kg/m3; in series [2] (308.15 K), 1033.7 ± 0.4 kg/m3; in series [2] (313.15 K), 1029.4 ± 0.4 kg/m3.

Consider `CC(=O)c1ccccc1` [acetophenone], for which the viscosity in series [2] (298.15 K) came to 1.68 ± 0.013 mPa·s; in series [2] (303.15 K) it was 1.54 ± 0.012 mPa·s; in series [2] (308.15 K) it was 1.41 ± 0.011 mPa·s; in series [2] (313.15 K) it was 1.31 ± 0.01 mPa·s. Further, the mass density amounted to 1024.1 ± 0.6 kg/m3 in series [2] (298.15 K), 1019.9 ± 0.6 kg/m3 in series [2] (303.15 K), 1015.7 ± 0.6 kg/m3 in series [2] (308.15 K) and 1011.2 ± 0.6 kg/m3 in series [2] (313.15 K).

In the case of `CN(C)C=O` [dimethylformamide] + CC(=O)c1ccccc1, the viscosity in series [1] (298.15 K) came to 0.803 ± 0.006 mPa·s; in series [1] (303.15 K), 0.756 ± 0.006 mPa·s; in series [1] (308.15 K), 0.71 ± 0.005 mPa·s; in series [1] (313.15 K), 0.673 ± 0.005 mPa·s. In addition, the mass density in series [1] (298.15 K) was 944.5 ± 0.3 kg/m3; in series [1] (303.15 K), 939.8 ± 0.3 kg/m3; in series [1] (308.15 K), 935.1 ± 0.3 kg/m3; in series [1] (313.15 K), 930.2 ± 0.4 kg/m3.

On to `CN(C)C=O` [dimethylformamide], for which the viscosity in series [2] (298.15 K) is reported as 0.803 ± 0.006 mPa·s; in series [2] (303.15 K), 0.756 ± 0.006 mPa·s; in series [2] (308.15 K), 0.71 ± 0.005 mPa·s; in series [2] (313.15 K), 0.673 ± 0.005 mPa·s. In addition, the mass density amounted to 944.5 ± 0.3 kg/m3 in series [2] (298.15 K), 939.8 ± 0.3 kg/m3 in series [2] (303.15 K), 935.1 ± 0.3 kg/m3 in series [2] (308.15 K) and 930.2 ± 0.4 kg/m3 in series [2] (313.15 K).

(Values after the NIST ThermoML archive (doi:10.1021/je030163d).)
